This experiment concerns L1210 leukemia ip in BDF1 mice, survival T/C. The experiment can be described thus: NCI In Vivo Anticancer Drug Screen. Data for tumor model L1210 Leukemia (intraperitoneal) in B6D2F1 (BDF1) mice. The conditions noted are these: endpoint: mean survival time, higher = longer survival. A digest of the protocol: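 Read-out is survival time, reported as the treated-group measurement over the vehicle-control measurement.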

Where [1] appears, read: dose: 100.0 mg/kg/injection, schedule: Q01DX001 (ip), vehicle: Klucel (hydroxypropylcellulose) (HPC).
Setting [2] is: dose: 100.0 mg/kg/injection, schedule: Q01DX009 (ip), vehicle: Klucel (hydroxypropylcellulose) (HPC).
Where [3] appears, read: dose: 200.0 mg/kg/injection, schedule: Q01DX009 (ip), vehicle: Klucel (hydroxypropylcellulose) (HPC).
Setting [4] is: dose: 400.0 mg/kg/injection, schedule: Q01DX009 (ip), vehicle: Klucel (hydroxypropylcellulose) (HPC).

Several values for one entry are separate records, joined by “and”; a condition that tells them apart may be missing. Equal entries are not always repeated. Inconclusive results and toxic doses are left out.

The results in this text go back to PubChem BioAssay AID248 (DTP/NCI, 2004).

For `COC(=O)/C(=C\c1ccc(OC)cc1)CC(=O)O`, the T/C runs as follows: under setting [1], 96 % of control; under setting [2], 101 % of control and 104 % of control; (dose: 100.0 mg/kg/injection, schedule: Q04DX002 (ip), vehicle: Klucel (hydroxypropylcellulose) (HPC)) 98 % of control and 100 % of control; (dose: 100.0 mg/kg/injection, schedule: Q04DX003 (ip), vehicle: Klucel (hydroxypropylcellulose) (HPC)) 90 % of control; (dose: 200.0 mg/kg/injection, schedule: Q01DX001 (ip), vehicle: Klucel (hydroxypropylcellulose) (HPC)) 93 % of control; under setting [3], 95 % of control and 101 % of control. Also, the T/C (dose: 200.0 mg/kg/injection, schedule: Q04DX002 (ip), vehicle: Klucel (hydroxypropylcellulose) (HPC)) was 95 % of control and 113 % of control; the T/C (dose: 200.0 mg/kg/injection, schedule: Q04DX003 (ip), vehicle: Klucel (hydroxypropylcellulose) (HPC)) was 97 % of control; the T/C (dose: 400.0 mg/kg/injection, schedule: Q01DX001 (ip), vehicle: Klucel (hydroxypropylcellulose) (HPC)) is 104 % of control; the T/C under setting [4] was 93 % of control and 108 % of control; the T/C (dose: 400.0 mg/kg/injection, schedule: Q04DX002 (ip), vehicle: Klucel (hydroxypropylcellulose) (HPC)) is 102 % of control and 103 % of control; the T/C (dose: 400.0 mg/kg/injection, schedule: Q04DX003 (ip), vehicle: Klucel (hydroxypropylcellulose) (HPC)) was 97 % of control.

Turning to `NC(=NCc1ccccc1)c1ccc(N=C(N)c2ccc(C(N)=Nc3ccc(C(N)=NCc4ccccc4)cc3)cc2)cc1`, the T/C was 95 % of control (dose: 5.0 mg/kg/injection, schedule: Q01DX001 (ip), vehicle: water); 119 % of control (dose: 6.25 mg/kg/injection, schedule: Q01DX009 (ip), vehicle: saline); 96 % of control (dose: 10.0 mg/kg/injection, schedule: Q01DX001 (ip), vehicle: water); 153 % of control (dose: 12.5 mg/kg/injection, schedule: Q01DX009 (ip), vehicle: saline); 95 % of control (dose: 12.5 mg/kg/injection, schedule: Q01DX015 (oral), vehicle: water); 98 % of control (dose: 15.0 mg/kg/injection, schedule: Q01DX001 (ip), vehicle: water). Further, the T/C (dose: 18.0 mg/kg/injection, schedule: Q01DX015 (ip), vehicle: water) was 249 % of control; the T/C (dose: 20.0 mg/kg/injection, schedule: Q01DX001 (ip), vehicle: water) is 107 % of control; the T/C (dose: 25.0 mg/kg/injection, schedule: Q01DX009 (ip), vehicle: saline) is 114 % of control; the T/C (dose: 25.0 mg/kg/injection, schedule: Q01DX015 (ip), vehicle: water) was 222 % of control and 256 % of control; the T/C (dose: 25.0 mg/kg/injection, schedule: Q01DX015 (oral), vehicle: water) is 91 % of control; the T/C (dose: 50.0 mg/kg/injection, schedule: Q01DX015 (oral), vehicle: water) was 98 % of control. Also, the T/C (dose: 100.0 mg/kg/injection, schedule: Q01DX015 (oral), vehicle: water) was 98 % of control.

With `Cc1sc2ccccc2[n+]1CCC(=O)O`, the T/C is 94 % of control (dose: 100.0 mg/kg/injection, schedule: Q01DX009 (ip), vehicle: gum acacia); 95 % of control (dose: 100.0 mg/kg/injection, schedule: Q04DX003 (ip), vehicle: gum acacia); 101 % of control (dose: 200.0 mg/kg/injection, schedule: Q01DX009 (ip), vehicle: gum acacia); 96 % of control (dose: 200.0 mg/kg/injection, schedule: Q04DX003 (ip), vehicle: gum acacia); 100 % of control (dose: 400.0 mg/kg/injection, schedule: Q01DX009 (ip), vehicle: gum acacia); 95 % of control (dose: 400.0 mg/kg/injection, schedule: Q04DX003 (ip), vehicle: gum acacia).

Turning to `Oc1ccc2ccc(Cl)cc2c1`, the T/C was 95 % of control (dose: 100.0 mg/kg/injection, schedule: Q01DX001 (ip), vehicle: carboxymethylcellulose (CMC)); 90 % of control (dose: 200.0 mg/kg/injection, schedule: Q01DX001 (ip), vehicle: carboxymethylcellulose (CMC)); 95 % of control (dose: 400.0 mg/kg/injection, schedule: Q01DX001 (ip), vehicle: carboxymethylcellulose (CMC)).

On to `Cc1c2oc3c(C)ccc(C(=O)OCCN4CCCCC4)c3nc-2c(C(=O)OCCN2CCCCC2)c(N)c1=O`, for which the T/C by setting is: (dose: 100.0 mg/kg/injection, schedule: Q04DX002 (ip), vehicle: saline with Tween-80) 113 % of control; (dose: 200.0 mg/kg/injection, schedule: Q04DX002 (ip), vehicle: saline with Tween-80) 98 % of control.

Turning to `NC(=S)c1nnn(Cc2ccccc2)c1N`, the T/C is 100 % of control (dose: 100.0 mg/kg/injection, schedule: Q01DX001 (ip), vehicle: saline); 101 % of control (dose: 200.0 mg/kg/injection, schedule: Q01DX001 (ip), vehicle: saline); 102 % of control (dose: 400.0 mg/kg/injection, schedule: Q01DX001 (ip), vehicle: saline).

With `COC(=O)c1ccnc(C(=O)OC)c1`, the T/C reads like this: (dose: 100.0 mg/kg/injection, schedule: Q01DX001 (ip), vehicle: saline sonified) 98 % of control; (dose: 100.0 mg/kg/injection, schedule: Q01DX009 (ip), vehicle: saline) 95 % of control; (dose: 200.0 mg/kg/injection, schedule: Q01DX001 (ip), vehicle: saline sonified) 103 % of control; (dose: 200.0 mg/kg/injection, schedule: Q01DX009 (ip), vehicle: saline) 95 % of control; (dose: 400.0 mg/kg/injection, schedule: Q01DX001 (ip), vehicle: saline sonified) 98 % of control; (dose: 400.0 mg/kg/injection, schedule: Q01DX009 (ip), vehicle: saline) 93 % of control.

With `COC(=O)CCNc1ccccc1-c1ccccc1`, the T/C by setting is: (dose: 100.0 mg/kg/injection, schedule: Q04DX002 (ip), vehicle: saline) 95 % of control; (dose: 200.0 mg/kg/injection, schedule: Q04DX002 (ip), vehicle: saline) 114 % of control; (dose: 400.0 mg/kg/injection, schedule: Q04DX002 (ip), vehicle: saline) 103 % of control.

In the case of `O=c1cc(NCc2ccccc2)[nH]c(=O)[nH]1`, the T/C by setting is: (dose: 50.0 mg/kg/injection, schedule: Q01DX001 (ip), vehicle: Klucel (hydroxypropylcellulose) (HPC)) 91 % of control; under setting [1], 97 % of control.

On to `COc1cc([N+](=O)[O-])ccc1NC(=O)c1c(Br)c(Br)c(Br)c(Br)c1C(=O)O`, for which the T/C by setting is: under setting [2], 101 % of control; under setting [3], 106 % of control; under setting [4], 106 % of control.

`N#CC(N)=NC1CCC(C2CCC(O)CC2)CC1` (stereo not drawn): the T/C by setting is: under setting [2], 94 % of control; under setting [3], 96 % of control; under setting [4], 96 % of control.

As for `CCN(CC)CCCC(C)Nc1ccnc2cc(C(F)(F)F)ccc12` (stereo not drawn), the T/C (dose: 5.0 mg/kg/injection, schedule: Q01DX001 (ip), vehicle: carboxymethylcellulose (CMC)) was 104 % of control; the T/C (dose: 10.0 mg/kg/injection, schedule: Q01DX001 (ip), vehicle: carboxymethylcellulose (CMC)) is 106 % of control; the T/C (dose: 20.0 mg/kg/injection, schedule: Q01DX001 (ip), vehicle: carboxymethylcellulose (CMC)) is 90 % of control; the T/C (dose: 40.0 mg/kg/injection, schedule: Q01DX001 (ip), vehicle: carboxymethylcellulose (CMC)) was 104 % of control.

As for `COc1ccc(/C=C2/Oc3cc(O)ccc3C2=O)cc1`, the T/C was 90 % of control (dose: 100.0 mg/kg/injection, schedule: Q01DX001 (ip), vehicle: saline with Tween-80); 93 % of control (dose: 200.0 mg/kg/injection, schedule: Q01DX001 (ip), vehicle: saline with Tween-80); 86 % of control (dose: 400.0 mg/kg/injection, schedule: Q01DX001 (ip), vehicle: saline with Tween-80).

Consider `Cc1c2ccnc(-c3ccc(F)cc3)c2cc2c1[nH]c1ccccc12`, for which the T/C (dose: 16.0 mg/kg/injection, schedule: Q01DX005 (ip), vehicle: saline) is 100 % of control; the T/C (dose: 32.0 mg/kg/injection, schedule: Q01DX005 (ip), vehicle: saline) is 100 % of control; the T/C (dose: 64.0 mg/kg/injection, schedule: Q01DX005 (ip), vehicle: saline) is 105 % of control; the T/C (dose: 128.0 mg/kg/injection, schedule: Q01DX005 (ip), vehicle: saline) was 103 % of control.

On to `COc1ccc(/C=C/C(=O)c2ccccc2)cc1Br`, for which the T/C is 100 % of control (dose: 100.0 mg/kg/injection, schedule: Q04DX003 (ip), vehicle: saline with Tween-80); 96 % of control (dose: 200.0 mg/kg/injection, schedule: Q04DX003 (ip), vehicle: saline with Tween-80); 96 % of control (dose: 400.0 mg/kg/injection, schedule: Q04DX003 (ip), vehicle: saline with Tween-80).

On to `O=C1CCC(=O)C2CC=CCC12` (stereo not drawn), for which the T/C is 101 % of control (dose: 100.0 mg/kg/injection, schedule: Q## X003 (ip), vehicle: saline); 108 % of control (dose: 200.0 mg/kg/injection, schedule: Q## X003 (ip), vehicle: saline); 98 % of control (dose: 400.0 mg/kg/injection, schedule: Q## X003 (ip), vehicle: saline).
